# From patent US20060172958A1, “Phospholipid scramblase 3” (priority 2003, published 2006)
# Tests used:
# HeLa-PLS3 cells = experiment: TUNEL apoptosis assay with flow cytometry; assay type: cell-based; details: 200 nM PMA, 2 hours
# Protocol: (§1) Apoptotic assays were performed with annexinV-PE (BD-PharMingen) per manufacturer's protocol. The TUNEL assay (terminal deoxynucleotidyltransferase-mediated dUTP-biotin nick end labeling) was performed according to the manufacturer's protocol (Roche, Switzerland).
# (§2) If PLS3 is a direct downstream effector of PKC-δ in the PKC-δ-induced apoptotic pathway, then overexpression of PLS3 might enhance apoptosis induced by PKC-δ activation. HeLa-PLS3 were incubated with phorbol ester PMA, and analyzed for apoptosis with TUNEL assay and flow cytometry.
# HeLa-control cells = experiment: TUNEL apoptosis assay with flow cytometry; assay type: cell-based; details: 200 nM PMA, 2 hours
# Protocol: as §1, §2
# HEK293 cells = experiment: UV-induced cytochrome c release, subcellular fractionation and Western blot; assay type: cell-based
# Protocol: Subcellular fractionation was performed by differential centrifugation. In brief, […] were incubated in buffer containing 300 mM sucrose, 10 mM Tris (pH 7.5), 5 mM EDTA, 0.1% BSA and 1 mM PMSF protease inhibitor for 5 min on ice. Cells were disrupted by passage through a 25 G needle or dounced for 10 strokes, and then were centrifuged at 1000×g for 5 minutes, 10,000×g for 10 minutes, and 30,000×g for 60 minutes, for collection of intact cells/nuclei, crude mitochondria and microsomes, respectively. The final supernatants were used as cytosols. The mitochondria and the cytosolic fractions were analyzed for cytochrome c release with Western blot.
# The kinase that phosphorylates PLS3 was then sought. Based on the observation that PLS1 is phosphorylated by […], we studied whether PLS3 is the mitochondrial substrate of PKC-δ. It was first reconfirmed that PKC-δ is essential for UV-induced apoptosis by blocking PKC-δ with a PKC-δ inhibitor, rottlerin, in our system. The HEK293 cells were fractionated and the isolated mitochondria and cytosols were analyzed for cytochrome c release by Western blot. This study confirmed that cytochrome c was released to cytosol after UV irradiation, and this release was inhibited by rottlerin (FIG. 20b). […]
# mouse liver mitochondria = experiment: Cardiolipin transfer assay (NAO fluorescence); assay type: biochemical; details: 30 μM NAO, vs buffer or BSA control
# From the text: Cardiolipin was then investigated since cardiolipin is a mitochondrion-specific phospholipid and is potentially more critical in the process of apoptosis. Because radioactive cardiolipin is not commercially available, NAO was used to quantify cardiolipin in the recipient mitochondria. NAO binds cardiolipin specifically without interference by other phospholipids with a stoichiometry of 1 to 1 or 2 to 1. To achieve maximal NAO saturation, the recipient mitochondria were permeablized and fixed with formaldehyde. A dose titration of NAO was then performed. The red fluorescence achieved a plateau when the NAO concentrations were above 20 μM as reported (Garcia Fernandez et al. 2000). The concentration of 30 μM was thus chosen to determine the total amount of cardiolipin after in vitro cardiolipin transfer assay. […]
# Phospholipid transfer assay was modified from Koumanov et al. (Koumanov and Infante 1986). […] Mitochondria were then washed five times with mitochondrial preparation buffer to remove free liposomes and counted by scintillation counter for ^14C activity. For cardiolipin transfer assays, total amounts of cardiolipin were quantified by specific fluorescence with NAO dye. NAO (30 μM) was added to recipient mitochondria, and fluorescence intensity was measured at 590±35 nm by fluorescence microplate reader.
# 293-vector cells = experiment: Mitochondrial potential by Rhodamine 123 flow cytometry; assay type: cell-based; details: antimycin A for 6 h
# Protocol: FIG. 14. Overexpression of mutant PLS3 reduces mitochondrial mass, potential, and cytochrome c and CL content. […] C. […] The blot was re-probed with antibodies to VDAC and tubulin for controls. […] Error bars, SDs from five independent measurements. E. Quantitative PCR analysis of mitochondrial NADH dehydrogenase in 400 ng of whole cell genomic DNA. […] The crossing points (in cycle numbers) of the three cells are indicated.
compound,measurement,setting,value
CCCCCCCCCCCCCC(=O)O[C@@H]1[C@@H](C)[C@@]2(O)[C@@H](C=C(CO)C[C@]3(O)C(=O)C(C)=C[C@@H]23)[C@@H]2C(C)(C)[C@]12OC(C)=O [PMA],apoptosis (TUNEL),HeLa-PLS3 cells,shifted the curve to right
same,apoptosis (TUNEL),HeLa-control cells,did not induce any apoptosis
CC(=O)c1c(O)c(C)c(O)c(Cc2c(O)c3c(c(C(=O)/C=C/c4ccccc4)c2O)OC(C)(C)C=C3)c1O [rottlerin],amount of PKC-δ translocated to mitochondria,"HEK293 cells; UV plus rottlerin, washed mitochondria, 100 nM PMA, cytochrome c release",decreased
same,cytochrome c release to cytosol after UV irradiation,"HEK293 cells; rottlerin 10 μM, harvested 4 hours after UV",inhibited
"PLS3: Recombinant phospholipid scramblase 3 protein; purified PLS3β in transfer assay, His-tagged PLS3 in kinase assay",increase of total amount of cardiolipin in recipient mitochondria,mouse liver mitochondria,35%
antimycin A,mitochondrial potential (Rhodamine 123),293-vector cells,decrease of mitochondrial potential
